Assays:
[1] = Water Solubility and Krafft Point (0.1% solution in water, 40° C.); details: 40° C.
Description: The temperature at which a surfactant forms micelles instead of precipitates is referred to as the Krafft point (Tk), and at or below this temperature the solubility of a surfactant becomes equal to its CMC (numerical value at which micelles are formed).

[2] = Surface Tension Reduction; type: physicochemical; details: 40° C.
Description: An important characteristic feature that surfactants have is the tendency for them to absorb at the water/air interface in an oriented manner, thereby altering the interfacial free energy of that surface. The surface free energy per unit area or surface tension (γ), is a measure of this work and may be considered as the minimum amount of work required to bring sufficient surfactant molecules to the surface.

[3] = Critical Micelle Concentration (micelle formation); type: physicochemical; details: 40° C.
Description: The critical micelle concentration (CMC) is defined as the concentration at which a surfactant forms micelles in aqueous solution. […] A necessary and sufficient condition for CMC formation and surface tension reduction is the presence of both hydrophilic and hydrophobic functional groups. The hydrophilic portion provides strong interaction between the surfactant at the interface and with the surrounding water phase. The hydrophobic portion provides spontaneous adsorption of the surfactant at the interface and strong interaction with the adjacent air phase. If any of these functions are not performed, then CMC formation and surface tension reduction will not occur. For significant surface activity, a properly balanced hydrophilic and hydrophobic character is essential.

[4] = Viscosity Enhancement/Foam Stabilization (Brookfield Digital Viscometer)
[5] = Viscosity Modification of Sodium Lauryl Sulfate prototype detergent compositions; type: physicochemical; details: for Appearance (viscosity) / Viscosity Increase: 15.0% sodium lauryl sulfate; for Viscosity Increase: 22° C.
Protocol: The prototype detergent compositions are as follows:
(§1) Detergent Compositions Comprising Sodium
(§2) Lauryl Sulfate and Glycacarbamate Compounds
N-Dodecyl D-Glucocarbamate
2.0-7.0% Foam Stabilizer/Thickener
2.0% Viscosity Cobuilder
(§3) Lauryl Sulfate and Glycaurea Compounds
(§4) The above formulations were prepared by admixing the above ingredients in listed order and heating the mixture to about 80° C. with rapid stirring. The mixture was then cooled to about 40° C., placed in a clear jar and stored at room temperature.
It is well known that the viscosity of a liquid composition comprision of anionic surfactant can be modified by the addition of inorganic salts, such as sodium chloride. However, in the absence of an organic modifier, high levels of salt may be necessary to achieve the required viscosity which may lead to problems of storage at cold temperature or even salting our certain ingrediets. In practice, however, the viscosity of a liquid compositionis modified by the simultaneous addition of thickener and small amounts of inorganic salt (viscosity cobuilder). The combined effect is greater than either one alone. The viscosity of the above prototype detergent compositions comprising various amounts of glycacarbamate/urea compound are as follows: […]

[6] = Flow aids: water uptake and appearance of intimate admixtures; type: physicochemical; details: intimate admixtures with ODS, SCMOS, CP-5 or CP-7
Description: It is known in the are that certain ingredients are hygroscopic in nature and liquify after exposure to moisture after a few days. […] Samples were removed periodically, weighed and returned to R. H. chamber. Percent water uptake was based on the amound of builder present. % H2 O Uptake=grams of water absorbed/grams of builder×100 Identical mixtures of ODS, SCMOS, CP-5 or CP-7 and methyl α-D-glucose-6-O-monolaurate (c12 Mgluc), dodecyl β-D-glucopyranoside (C12 Gluc), dodecyl β-D-maltoside (C12 Malt), D-glucose or D-sorbitol were also prepared and are used for comparison. When the comparative sugar surfactant of monosacchardie are used, percent water uptake was based on the amount of saccharide present. % H2 O Uptake=grams of water absorbed/grams of saccharide×100

[7] = Clarity Enhancement of prototype detergent compositions; type: physicochemical; details: detergent formulation
Protocol: The formulations were placed in a clear jar and stored for 1 month. The prototype detergent compositions are as follows:
as §1, §2
N-Coconut D-Glucocarbamate
0.5-4.0% Foam Stabilizer/Thickener
as §3, §4
For a clear detergent formulation to be successful it must have good shelf life and should not become turbid or produce sedimentation upon standing.

## CCCCCCCCCCCCN1C[C@H](O)[C@H]([C@H](O)[C@H](O)CO)OC1=O [N-Dodecyl D-Glucocarbamate]
[1]
  H2O Solubility at 40° C.: Yes
  Krafft point (Tk): Below Tk
[2]
  Surface tension reduction (γ) at 40° C.: Yes
[3]
  CMC at 40° C. (micelle formation): Yes
[4]; 4.0% thickener
  Foam Stability: Yes
  viscosity increase from normal viscosity: 99-104 times
[4]; 4.0% thickener, 22° C.
  Viscosity (Centipoise): 2176 Centipoise
[4]; 4.0% thickener, listed as N-dodecyl D-glucocarbamate
  Foam Stability: stabilize foam
[4]; compared with lauramide DEA, cocoamide MEA, Neodol 91-6 and D-glucose
  viscosity enhancement and foam stabilization (comparison in words): enhance viscosity and stabilze foam compartively to lauramide diethanolamine (DEA), but better than cocoamide menoethanolamine (MEA), Neodol 91-6 (C9 -C11 alcohol ethoxylate with 6 moles of ethylene oxide) and D-glucose
[5]; 2.0% thickener
  Appearance (viscosity): Slightly Viscous
  Viscosity Increase: Yes
[5]; 4.0% thickener
  Appearance (viscosity): Viscous
  Viscosity Increase: Yes
[5]; 7.0% thickener
  Appearance (viscosity): Very Viscous
  Viscosity Increase: Yes
[5]; compared with D-glucose
  viscosity increase (in words): increases the viscosity of that composition more effectively than D-glucose
[6]
  handling and flowing characteristics (in words): improved the handling and flowing characteristics
[7]
  clarity (in words): clear without sedimentation

Reference: US5880076A, “Compositions comprising glycacarbamate and glycaurea compounds” (Lever Brothers Company, Division of Conopco, Inc., priority 1997, dated 1999)
